# Test results published in US5597820A, “1, 4-benzoxazine derivative and pharmaceutical compositions containing the same” (Kanebo, Ltd., priority 1994, dated 1997).
# Legend:
# Na^+ /H^+ exchange = biological target: T1, Na^+ /H^+ exchange (Rattus norvegicus, UniProt P26431); assay: Na^+ /H^+ Exchange inhibitory activity (sodium propionate-induced swelling of platelets); assay type: cell-based, rat (male Wistar rats); settings: rat platelet-rich plasma, 37° C.
# T1 construct: A supernatant was separated to prepare platelet-rich plasma; endogenous in cells; host or cells: platelets in platelet-rich plasma from male Wistar rats (abdominal aorta blood)
# Procedure: The compounds of the present invention were assessed for their Na^+ /H^+ exchange inhibitory activity based on an activity to inhibit sodium propionate-induced swelling of platelets in accordance with the method of Rosskoph et al. [Journal of Hypertension, 9, 231-238 (1991)].
# First, platelet-rich plasma was prepared in accordance with the method of Mammen et al. [Diabetes Research and Clinical Practice, 9(3), 265-272 (1990)]. Briefly, male Wistar rats weighing 190 to 420 g were abdominally operated under anesthesia with ether and blood was taken from the abdominal aorta. For inhibiting blood coagulation, ACD solution (a mixture of 65 mM citric acid, 85 mM sodium citrate, 11 mM dextrose) was added to blood and this treated blood was centrifuged at 90× g for 10 minutes. A supernatant was separated to prepare platelet-rich plasma.
# Then, a solution of the test compounds in dimethylsulfoxide was added to 140 mM sodium propionate buffer solution. To this mixture was added the platelet-rich plasma prepared above and a decrease in optical density was recorded with the passage of time at 37° C. using a platelet aggregometer (turbidimeter) and a X-Y recorder to calculate a decrease rate in optical density after mixing with platelet-rich plasma [decrease rate in optical density in the presence of the test compounds (D)]. On the other hand, the solvent dimethylsulfoxide alone was used instead of the solution of the test compounds and the decrease in optical density was recorded in the similar manner to calculate a decrease rate in optical density [control (C)]. A swelling inhibitory rate (%) was calculated using the following formula:
# Swelling inhibitory rate (%)=(1-D/C)×100
# [1] = test system: myocardial infarction lesion; assay: Activity to reduce myocardial infarction lesion (rat acute myocardial infarction model); assay type: in vivo, rat (male Sprague-Dawley rats); settings: femoral vein
# Procedure: Using a rat acute myocardial infarction model, the compounds of the present invention were assessed for their activity to reduce myocardial infarction lesion in accordance with the method of Petty et al. [European Journal of Pharmacology, 192, 383-388 (1991)]. Male Sprague-Dawley rats (weighing 320 to 430 g) were anesthetized by intraperitoneal administration of sodium pentobarbital (50 mg/kg). Under anesthesia, the rats were cannulated via trachea and the cannula was linked to a respirator and then the body temperature was maintained at 37° C. The chest of the rats were opened at the left fifth intercostal space and the pericardium was cut open to reveal the heart. Then a solution of the test compound in a mixed solvent of polyethylene glycol 400, ethanol and a physiological saline [3:3:14 (v/v)] was administered into the femoral vein. Ten minutes after the administration of the compound, the origin of the left coronary artery was occluded. After occlusion for 30 minutes, reperfusion was carried out for 2 hours. After reperfusion, the heart was removed and the origin of the left coronary artery was ligated again. The heart was cannulated via the aorta and a 0.025% solution of Evans blue was perfused using a syringe pump to distinguish an ischemic region (not stained with Evans blue) and a non-ischemic region (stained with Evans blue). The ischemic region was incubated in a 0.1% triphenyltetrazolium chloride (TTC) solution at 37° C. for 30 minutes to distinguish a TTC-stained region and a non-stained region (infarction region).
# reperfusion arrhythmia = assay: Inhibitory activity against reperfusion arrhythmia (rat acute myocardial infarction model); assay type: in vivo, rat (male Sprague-Dawley rats); settings: femoral vein
# Procedure: Using a rat acute myocardial infarction model, the compounds of the present invention were assessed for their inhibitory activity against reperfusion arrhythmia in accordance with the method of […] al. [European Journal of Pharmacology, 194, 7-10 (1991)]. Male Sprague-Dawley rats (weighing 310 to 490 g) were anesthetized by intraperitoneal administration of sodium pentobarbital (50 mg/kg). Under anesthesia, the rats were cannulated via trachea and the cannula was linked to a respirator. An electrocardiogram (the lead II) was obtained from electrodes attached to the limbs using bioelectric amplifier while maintaining the body temperature at 37° C. The chest of the rats were opened at the left fifth intercostal space and the pericardium was cut open to reveal the heart. Then a solution of the test compound in a mixed solvent of polyethylene glycol 400, ethanol and a physiological saline [3:3:14 (v/v)] was administered into the femoral vein. Ten minutes after the administration of the compound, the origin of the left coronary artery was occluded. After occlusion for 5 minutes, reperfusion was carried out for 10 minutes and a duration (second) of a ventricular fibrillation after reperfusion was measured from the electrocardiogram (mean±standard error, n=3 to 10). The ventricular fibrillation was assessed in accordance with the guideline of The Lambeth Convention [Cardiovascular Research, 22, 447-455 (1988)]. On the other hand, the mixed solvent of polyethylene glycol 400, ethanol and a physiological saline [3:3:14 (v/v)] alone was used as a control and a duration (second) of the ventricular fibrillation was measured in a similar manner. Using male Sprague-Dawley rats weighing 310 to 440 g, the duration (second) of the ventricular fibrillation was measured in the same manner as in Test 1 (n=4 to 10). Using male Sprague-Dawley rats weighing 310 to 400 g, the duration (second) of the ventricular fibrillation was measured in the same manner as in Test 1 (n=4 to 6).
# [2] = Test 2 (Table 4), 0.1 mg/kg, control 146.1 ± 5.9, **: p < 0.01
# [3] = Test 2 (Table 7), 1 mg/kg, control 45.2 ± 4.1, **: p < 0.01
# [4] = Test 3 (Table 5), 0.1 mg/kg, control 171.0 ± 5.8, Example 19 *: p < 0.05, Example 21 **: p < 0.01
# T1 sequence (P26431 whole entry): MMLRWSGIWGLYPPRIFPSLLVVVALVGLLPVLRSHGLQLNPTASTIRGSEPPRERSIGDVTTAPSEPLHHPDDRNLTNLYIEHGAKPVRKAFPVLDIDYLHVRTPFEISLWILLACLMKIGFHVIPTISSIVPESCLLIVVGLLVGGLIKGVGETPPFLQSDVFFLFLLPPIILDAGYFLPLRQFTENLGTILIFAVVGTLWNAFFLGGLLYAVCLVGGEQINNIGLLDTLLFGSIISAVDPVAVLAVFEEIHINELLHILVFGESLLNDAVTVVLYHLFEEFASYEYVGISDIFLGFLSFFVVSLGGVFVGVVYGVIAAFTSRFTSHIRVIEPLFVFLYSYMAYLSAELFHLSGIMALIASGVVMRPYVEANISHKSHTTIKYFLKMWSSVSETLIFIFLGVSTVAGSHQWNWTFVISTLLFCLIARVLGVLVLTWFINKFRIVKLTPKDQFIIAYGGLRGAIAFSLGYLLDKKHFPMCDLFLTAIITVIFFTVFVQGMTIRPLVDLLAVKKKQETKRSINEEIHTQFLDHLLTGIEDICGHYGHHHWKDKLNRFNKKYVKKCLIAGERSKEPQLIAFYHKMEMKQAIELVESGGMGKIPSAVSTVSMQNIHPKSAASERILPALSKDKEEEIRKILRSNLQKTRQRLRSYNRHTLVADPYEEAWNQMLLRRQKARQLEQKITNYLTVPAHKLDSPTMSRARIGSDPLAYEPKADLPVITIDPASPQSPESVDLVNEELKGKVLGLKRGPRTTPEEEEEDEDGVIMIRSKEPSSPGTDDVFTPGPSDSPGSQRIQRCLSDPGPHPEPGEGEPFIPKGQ
Compound,IC50 (Na^+ /H^+ exchange),also measured
"N=C(N)NC(=O)c1nc(Cl)c(N)nc1N [Amiloride, amiloride, reference compound]",13000 nM,
"CC(C)N1C(=O)C(C)(C)Oc2cc(C(=O)N=C(N)N)ccc21 [Example 1, N-amidino-2,2-dimethyl-4-(2-propyl)-3-oxo-3,4-dihydro-2H-1,4-benzoxazine-7-carboxamide]",200 nM,
"CC1Oc2cc(C(=O)NC(=N)N)ccc2N(C(C)C)C1=O (centres unmarked) [Example 2, N-amidino-2-methyl-4-(2-propyl)-3-oxo-3,4-dihydro-2H-1,4-benzoxazine-7-carboxamide]",94 nM,"Infarction region/ischemic region (%) (mean ± standard error) ([1]; Test 1 (Table 6), 0.01 mg/kg, control 51.4 ± 2.4): 41.7 ± 10.3%; Infarction region/ischemic region (%) (mean ± standard error) ([1]; Test 1 (Table 6), 0.1 mg/kg, control 51.4 ± 2.4): 35.6 ± 3.5%; Infarction region/ischemic region (%) (mean ± standard error) ([1]; Test 1 (Table 6), 1 mg/kg, control 51.4 ± 2.4, **: p < 0.01): 7.2 ± 4.9%; Duration (second) of ventricular fibrillation (mean ± standard error) (reperfusion arrhythmia; Test 1 (Table 3), 0.01 mg/kg, control 92.6 ± 20.2): 118.9 ± 59.4 s; Duration (second) of ventricular fibrillation (mean ± standard error) (reperfusion arrhythmia; Test 1 (Table 3), 0.1 mg/kg, control 92.6 ± 20.2, *: p < 0.05): 19.1 ± 12.4 s; Duration (second) of ventricular fibrillation (mean ± standard error) (reperfusion arrhythmia; Test 1 (Table 3), 1 mg/kg, control 92.6 ± 20.2, *: p < 0.05): 0.0 ± 0.0 s"
"CC(C)N1C(=O)COc2cc(C(=O)NC(=N)N)ccc21 [Example 3, N-amidino-4-(2-propyl)-3-oxo-3,4-dihydro-2H-1,4-benzoxazine-7-carboxamide]",170 nM,
"CCN1C(=O)C(C)Oc2cc(C(=O)NC(=N)N)ccc21 (centres unmarked) [Example 4, N-amidino-4-ethyl-2-methyl-3-oxo-3,4-dihydro-2H-1,4-benzoxazine-7-carboxamide]",160 nM,
"CC(C)N1C(=O)C(C)(C)Oc2ccc(C(=O)NC(=N)N)cc21.Cl [Example 5, N-amidino-2,2-dimethyl-4-(2-propyl)-3-oxo-3,4-dihydro-2H-1,4-benzoxazine-6-carboxamide hydrochloride]",120 nM,Duration (second) of ventricular fibrillation (mean ± standard error) (reperfusion arrhythmia; [2]): 80.2 ± 27.8 s
"CCN1C(=O)C(C)Oc2ccc(C(=O)NC(=N)N)cc21 (centres unmarked) [Example 6, N-amidino-4-ethyl-2-methyl-3-oxo-3,4-dihydro-2H-1,4-benzoxazine-6-carboxamide]",290 nM,
"CCN1C(=O)C(C)(C)Oc2ccc(C(=O)NC(=N)N)cc21 [Example 7, N-amidino-2,2-dimethyl-4-ethyl-3-oxo-3,4-dihydro-2H-1,4-benzoxazine-6-carboxamide]",380 nM,
"CC1Oc2cc(C(=O)NC(=N)N)ccc2NC1=O (centres unmarked) [Example 8, N-amidino-2-methyl-3-oxo-3,4-dihydro-2H-1,4-benzoxazine-7-carboxamide]",810 nM,
"CCC1Oc2cc(C(=O)NC(=N)N)ccc2N(C(C)C)C1=O (centres unmarked) [Example 9, N-amidino-2-ethyl-4-(2-propyl)-3-oxo-3,4-dihydro-2H-1,4-benzoxazine-7-carboxamide]",34 nM,
"CC1Oc2cc(C(=O)NC(=N)N)ccc2N(C2CCCC2)C1=O (centres unmarked) [Example 10, N-amidino-4-cyclopentyl-2-methyl-3-oxo-3,4-dihydro-2H-1,4-benzoxazine-7-carboxamide]",62 nM,
"CCN1C(=O)COc2cc(C(=O)NC(=N)N)ccc21 [Example 12, N-amidino-4-ethyl-3-oxo-3,4-dihydro-2H-1,4-benzoxazine-7-carboxamide]",360 nM,
"CCC1Oc2cc(C(=O)NC(=N)N)ccc2N(CC)C1=O (centres unmarked) [Example 13, N-amidino-2,4-diethyl-3-oxo-3,4-dihydro-2H-1,4-benzoxazine-7-carboxamide]",83 nM,
"CC[C@@H]1Oc2cc(C(=O)NC(=N)N)ccc2N(C(C)C)C1=O [Example 14, (S)-N-Amidino-2-ethyl-4-(2-propyl)-3-oxo-3,4-dihydro-2H-1,4-benzoxazine-7-carboxamide]",73 nM,
"CC[C@H]1Oc2cc(C(=O)NC(=N)N)ccc2N(C(C)C)C1=O [Example 15, (R)-N-Amidino-2-ethyl-4-(2-propyl)-3-oxo-3,4-dihydro-2H-1,4-benzoxazine-7-carboxamide]",36 nM,
"CC[C@@H]1Oc2cc(C(=O)NC(=N)N)ccc2N(CC)C1=O [Example 16, (S)-N-amidino-2,4-diethyl-3-oxo-3,4-dihydro-2H-1,4-benzoxazine-7-carboxamide]",45 nM,
"CC[C@H]1Oc2cc(C(=O)NC(=N)N)ccc2N(CC)C1=O [Example 17, (R)-N-amidino-2,4-diethyl-3-oxo-3,4-dihydro-2H-1,4-benzoxazine-7-carboxamide]",71 nM,
"CC[C@H]1Oc2cc(C(=O)NC(=N)N)ccc2N(C(C)C)C1=O.Cl [Example 18, (R)-N-Amidino-2-ethyl-4-(2-propyl)-3-oxo-3,4-dihydro-2H-1,4-benzoxazine-7-carboxamide hydrochloride]",38 nM,"Infarction region/ischemic region (%) (mean ± standard error) [1, 3]: 21.7 ± 5.5%; Duration (second) of ventricular fibrillation (mean ± standard error) (reperfusion arrhythmia; Test 2 (Table 4), 0.01 mg/kg, control 146.1 ± 5.9): 75.5 ± 29.2 s; Duration (second) of ventricular fibrillation (mean ± standard error) (reperfusion arrhythmia; [2]): 31.4 ± 20.6 s; Duration (second) of ventricular fibrillation (mean ± standard error) (reperfusion arrhythmia; Test 2 (Table 4), 1 mg/kg, control 146.1 ± 5.9, **: p < 0.01): 0.0 ± 0.0 s"
"CC[C@H]1Oc2cc(C(=O)NC(=N)N)ccc2N(C(C)C)C1=O.CS(=O)(=O)O [Example 19, (R)-N-Amidino-2-ethyl-4-(2-propyl)-3-oxo-3,4-dihydro-2H-1,4-benzoxazine-7-carboxamide methanesulfonate]",44 nM,"Infarction region/ischemic region (%) (mean ± standard error) [1, 3]: 20.7 ± 5.2%; Duration (second) of ventricular fibrillation (mean ± standard error) (reperfusion arrhythmia; Test 3 (Table 5), 0.01 mg/kg, control 171.0 ± 5.8): 116.8 ± 40.2 s; Duration (second) of ventricular fibrillation (mean ± standard error) (reperfusion arrhythmia; [4]): 36.5 ± 32.2 s; Duration (second) of ventricular fibrillation (mean ± standard error) (reperfusion arrhythmia; Test 3 (Table 5), 1 mg/kg, control 171.0 ± 5.8, *: p < 0.05): 0.0 ± 0.0 s"
"CC[C@@H]1Oc2cc(C(=O)NC(=N)N)ccc2N(CC)C1=O.Cl [Example 20, (S)-N-amidino-2,4-diethyl-3-oxo-3,4-dihydro-2H-1,4-benzoxazine-7-carboxamide hydrochloride]",49 nM,Duration (second) of ventricular fibrillation (mean ± standard error) (reperfusion arrhythmia; [2]): 27.2 ± 27.2 s
"CC[C@@H]1Oc2cc(C(=O)NC(=N)N)ccc2N(CC)C1=O.CS(=O)(=O)O [Example 21, (S)-N-amidino-2,4-diethyl-3-oxo-3,4-dihydro-2H-1,4-benzoxazine-7-carboxamide methanesulfonate]",89 nM,Duration (second) of ventricular fibrillation (mean ± standard error) (reperfusion arrhythmia; [4]): 69.0 ± 31.1 s
